Data set [1] can be described thus: Pharmacokinetic profiles in rats after intravenous and oral administration. Type of data set: in vivo. To be noted: for F: oral dose generally 5 or 10 mg/kg; for AUC(0-t) / half-life / Vd: rat, plasma; for Vd: read-out: Vss. As to the method: The compounds disclosed herein are assessed in pharmacokinetic studies in mice, rats, dogs or monkeys. The compounds are administered as a water solution, 2% HPMC+1% TWEEN® 80 in water solution, 5% DMSO+5% solutol in saline, 4% MC suspension or capsule. For the intravenous administration, the animals are generally given at 1 or 2 mg/kg dose. For the oral (p.o.) dosing, mice and rats are generally given 5 or 10 mg/kg dose, and dogs and monkeys are generally given 10 mg/kg dose. The blood samples (0.3 mL) are drawn at 0.25, 0.5, 1.0, 2.0, 3.0, 4.0, 6.0, 8.0, 12 and 24 h time points or 0.083, 0.25, 0.5, 1.0, 2.0, 4.0, 6.0, 8.0 and 24 h time points and centrifuged at 3,000 or 4000 rpm for 2 to 10 min. The plasma solutions are collected, stored at −20° C. or −70° C. until analyzed by LC/MS/MS as described above.

A further data set addresses T1, PI3K p110α/p85α (h) (Homo sapiens, UniProt P42336).
T1 construct: purchased Millipore UK Ltd (assay service)
The experiment in a line: PI3K p110α/p85α (h) non-radioactive HTRF assay. It counts as biochemical. The method, then: PI3K p110α/p85α (h) is incubated in assay buffer containing 10 μM phosphatidylinositol 4,5-bisphosphate and MgATP (concentration as required). The reaction is initiated by the addition of the ATP solution. After incubation for 30 minutes at room temperature, the reaction is stopped by the addition of stop solution containing EDTA and biotinylated phosphatidylinositol-3,4,5-trisphosphate. Finally, detection buffer is added, which contains europium-labelled anti-GST monoclonal antibody, GST-tagged GRP1 PH domain and streptavidin allophycocyanin. The plate is then read in timeresolved fluorescence mode and the homogenous time-resolved fluorescence (HTRF) signal is determined according to the formula HTRF=10000×(Em665 nm/Em620 nm).
The kinase assays described herein were performed at Millipore UK Ltd, Dundee Technology Park, Dundee DD2 1SW, UK.

Data set [2] in a line: Compound stability in rat liver microsomes. Type of data set: in vitro ADME. To be noted: for half-life at 5 μM / CLint scaled at 5 μM: pH 7.4; for half-life at 5 μM: read-out: Rat T1/2; for CLint scaled at 5 μM: rat liver microsomes, in vivo CLint extrapolated. As to the method:
(§1) Human or rat liver microsomes incubations were conducted in duplicate in polypropylene tubes. The typical incubation mixtures consisted of human or rat liver microsomes (0.5 mg protein/mL), compounds of interest (5 μM) and NADPH (1.0 mM) in a total volume of 200 μL potassium phosphate buffer (PBS, 100 mM, pH=7.4). Compounds were dissolved in DMSO and diluted with PBS such that the final concentration of DMSO was 0.05%. The enzymatic reactions were commenced with the addition of […] after a 3-min preincubation and incubated in a water bath open to the air at 37° C. Reactions were terminated at various time points (0, 5, 10, 15, 30, 60 min) by adding equal volume of ice-cold acetonitrile. The samples were stored at −80° C. until LC/MS/MS assays.
(§2) The concentrations of compounds in the incubation mixtures of human or rat liver microsomes were determined by a LC/MS/MS method. The ranges of the linearity in the concentration range were determined for each tested compounds.
(§3) A parallel incubation was performed using denatured microsomes as the negative control, and reactions were terminated at various time points (0, 15, 60 min) after incubation at 37° C.
(§4) Dextromethorphan (70 μM) was selected as the positive control, and reactions were terminated at various time points (0, 5, 10, 15, 30, 60 min) after incubation at 37° C. Both positive and negative control samples were included in each assay to ensure the integrity of the microsomal incubation system.
(§5) The concentrations of compounds in human or rat liver microsome incubations were plotted as a percentage of the relevant zero time point control for each reaction. The in vivo CLint were extrapolated (ref: Naritomi Y, Terashita S, Kimura S, Suzuki A, Kagayama A, Sugiyama Y. Prediction of human hepatic clearance from in vivo animal experiments and in vitro metabolic studies with liver microsomes from animals and humans. Drug Metabolism and Disposition 2001, 29: 1316-1324).

Data set [3] in a line: Compound stability in human liver microsomes. It counts as in vitro ADME. To be noted: for half-life at 5 μM / CLint scaled at 5 μM: pH 7.4; for half-life at 5 μM: read-out: Human T1/2; for CLint scaled at 5 μM: human liver microsomes, in vivo CLint extrapolated. The method, then:
as §1, §2, §3, §4, §5

For another data set, the system named is U87MG glioblastoma cells. The experiment in a line: Tumor xenograft model (U87MG), tumor growth inhibition. It counts as in vivo, athymic nude mice. To be noted: 12 days. The method, then: The efficacy of compounds disclosed herein was evaluated in a standard murine model of tumorigenesis. Human tumor cells (U87MG glioblastoma cells from ATCC) were expended in culture, harvested, and injected subcutaneously onto the rear flank of 6-7 week old female athymic nude mice (BALB/cA nu/nu, Hunan SLAC Laboratory Animal, Co.) (n=6-10 for vehicle group and for each dosing group). When tumors reached a volume of 100-250 mm^3, animals were randomly divided into vehicle control (for example, 5% DMSO+70% Captisol® (30%), 7% HCl (pH1), 18% Captisol® (30%); or 7% DMSO, 7% HCl (pH1), 70% Captisol® (30%), 16% Captisol® (30%), or the like) and compound groups. Subsequent administration of compound by oral gavage begins anywhere from day 0 to day 15 post tumor cell challenge and generally continues with once a day for the duration of the experiment.
Progression of tumor growth is assessed by tumor volumes and recorded as a function of time. The long (L) and short (W) axes of the subcutaneous tumors were measured with calipers twice weekly, and the tumor volume (TV) calculated as (L×W^2)/2). TGI was calculated from the difference between the median tumor volumes of vehicle-treated and drug-treated mice, expressed as a percentage of the median tumor volume of the vehicle-treated control group, by the following relation:
Initial statistical analysis is done by repeated measures analysis of variance (RMANOVA), followed by Scheffe psot hoc testing for multiple comparisons. Vehicle alone (5% DMSO+70% Captisol® (30%), 7% HCl (pH1), 18% Captisol® (30%); or 7% DMSO, 7% HCl (pH1), 70% Captisol® (30%), 16% Captisol® (30%), or the like) is the negative control.

Where [4] appears, read: rat liver microsomes 0.5 mg protein/mL, compound 5 μM, NADPH 1.0 mM, 37° C.
Setting [5] is: human liver microsomes 0.5 mg protein/mL, compound 5 μM, NADPH 1.0 mM, 37° C.

Read-outs that look alike come from different tables or passages of the source.

T1 sequence (P42336 whole entry): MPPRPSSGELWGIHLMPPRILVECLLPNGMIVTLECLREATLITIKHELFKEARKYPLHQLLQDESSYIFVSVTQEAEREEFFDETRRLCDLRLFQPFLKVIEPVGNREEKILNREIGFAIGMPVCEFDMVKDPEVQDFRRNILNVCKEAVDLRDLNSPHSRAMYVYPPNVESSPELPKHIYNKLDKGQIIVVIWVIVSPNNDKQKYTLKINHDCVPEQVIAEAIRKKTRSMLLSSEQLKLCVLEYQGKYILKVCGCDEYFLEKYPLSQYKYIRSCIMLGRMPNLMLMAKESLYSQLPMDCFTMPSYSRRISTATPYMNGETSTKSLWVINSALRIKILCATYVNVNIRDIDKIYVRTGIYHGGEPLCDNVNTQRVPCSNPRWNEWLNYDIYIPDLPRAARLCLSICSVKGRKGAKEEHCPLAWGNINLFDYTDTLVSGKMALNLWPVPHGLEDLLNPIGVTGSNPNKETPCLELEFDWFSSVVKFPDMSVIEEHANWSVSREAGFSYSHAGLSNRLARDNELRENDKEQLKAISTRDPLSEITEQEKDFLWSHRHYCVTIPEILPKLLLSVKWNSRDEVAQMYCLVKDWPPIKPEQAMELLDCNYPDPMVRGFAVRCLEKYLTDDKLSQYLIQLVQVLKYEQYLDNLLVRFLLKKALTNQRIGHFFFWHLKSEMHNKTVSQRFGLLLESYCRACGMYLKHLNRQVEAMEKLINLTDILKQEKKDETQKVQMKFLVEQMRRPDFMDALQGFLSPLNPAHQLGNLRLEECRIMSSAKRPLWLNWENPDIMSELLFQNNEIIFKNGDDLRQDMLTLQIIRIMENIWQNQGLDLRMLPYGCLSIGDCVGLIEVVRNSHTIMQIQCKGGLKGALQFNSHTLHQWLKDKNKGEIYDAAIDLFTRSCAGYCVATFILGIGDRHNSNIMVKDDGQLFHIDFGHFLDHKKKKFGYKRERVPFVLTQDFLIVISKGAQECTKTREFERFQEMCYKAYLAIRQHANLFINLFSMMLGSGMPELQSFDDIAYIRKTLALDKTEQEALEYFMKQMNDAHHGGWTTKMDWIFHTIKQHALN
T1 sequence (P27986 whole entry partner): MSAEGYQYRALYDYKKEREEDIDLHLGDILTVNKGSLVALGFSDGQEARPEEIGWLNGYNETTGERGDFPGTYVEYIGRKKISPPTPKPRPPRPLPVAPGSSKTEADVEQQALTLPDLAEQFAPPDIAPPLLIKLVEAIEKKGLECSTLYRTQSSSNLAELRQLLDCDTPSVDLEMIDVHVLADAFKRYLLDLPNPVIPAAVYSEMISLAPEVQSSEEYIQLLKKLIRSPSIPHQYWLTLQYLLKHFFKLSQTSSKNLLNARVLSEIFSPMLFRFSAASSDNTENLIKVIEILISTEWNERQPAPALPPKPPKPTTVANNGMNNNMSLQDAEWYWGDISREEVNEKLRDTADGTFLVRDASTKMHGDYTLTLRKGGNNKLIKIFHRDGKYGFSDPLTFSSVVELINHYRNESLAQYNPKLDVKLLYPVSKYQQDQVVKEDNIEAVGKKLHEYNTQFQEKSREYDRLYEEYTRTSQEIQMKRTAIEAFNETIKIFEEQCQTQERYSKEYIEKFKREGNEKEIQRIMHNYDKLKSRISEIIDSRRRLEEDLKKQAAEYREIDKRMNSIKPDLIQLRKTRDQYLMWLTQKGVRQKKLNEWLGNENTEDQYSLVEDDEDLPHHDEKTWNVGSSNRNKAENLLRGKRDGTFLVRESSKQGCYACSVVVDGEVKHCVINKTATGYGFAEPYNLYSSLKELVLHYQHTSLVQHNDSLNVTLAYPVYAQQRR

“4-fluoro N (5 (3 (3 hydroxy-3-methylbut-1-yn-1-yl)-[1,2,4]-triazolo[4,3-b]pyridazin-6-yl)-2-methoxypyridin-3-yl)benzenesulfonamide [Ex. 12]” had a F in data set [1] (iv dose 2 mg/kg) of 1.3%. Further, in data set [1] (iv dosing 2 mg/kg), the AUClast was 411 ng·h/mL, the Cl/F was 77.8 mL/min/kg, the T1/2 is 4.71 h and the Vss stood at 18.42 L/kg. Also, the IC50 on PI3K p110α/p85α (h) worked out at 32 nM.

Regarding `CC#Cc1cnc2ccc(-c3cnc(OC)c(NS(=O)(=O)c4ccc(F)cc4)c3)nn12` [Ex. 5, 4-fluoro-N-(2-methoxy-5-(3-(prop-1-yn-1-yl)imidazo[1,2-b]pyridazin-6-yl)pyridin-3-yl)benzenesulfonamide], the F in data set [1] (iv dose 1 mg/kg) stood at 95.6%. Besides, in data set [1] (iv dosing 1 mg/kg), the Cl/F turned out to be 6.17 mL/min/kg, the AUC(0-t) came out at 2550 ng·h/mL, the half-life is 8.74 h and the Vd worked out at 2.29 L/kg. Further, the half-life at 5 μM in data set [2] (setting [4]) stood at 0.595 h. Also, the CLint scaled at 5 μM in data set [2] is 69.5 mL/min/kg. For the same compound, at PI3K p110α/p85α (h), the IC50 came to 17 nM. Also, in data set [3] (setting [5]), the half-life at 5 μM turned out to be 1.14 h. Also, in data set [3], the intrinsic clearance (CLint scaled) at 5 μM is 25.4 mL/min/kg.

Take `COc1ncc(-c2ccc3ncc(C#N)n3n2)cc1NS(=O)(=O)c1ccc(F)cc1` [Ex. 6, N-(5-(3-cyanoimidazo[1,2-b]pyridazin-6-yl)-2-methoxypyridin-3-yl)-4-fluorobenzenesulfonamide]: in the data set on U87MG glioblastoma cells (0.3 mg/kg oral gavage), the “TGI % U87MG” value is 14%. The “TGI % U87MG” value in the data set with U87MG glioblastoma cells (1 mg/kg oral gavage) was found to be 41%. The “TGI % U87MG” value in the data set with U87MG glioblastoma cells (3 mg/kg oral gavage) was found to be 71%. The F in data set [1] (iv dose 1 mg/kg) is reported as 123.7%. In data set [1] (iv dosing 1 mg/kg), the Cl/F was found to be 5.5 mL/min/kg, the AUC(0-t) was 2660 ng·h/mL, the half-life was 3.7 h and the Vd turned out to be 1.25 L/kg. At PI3K p110α/p85α (h), the IC50 was 4 nM.

With `COc1ncc(-c2ccc3ncc(C#CC(C)O)n3n2)cc1NS(=O)(=O)c1ccc(F)cc1F` (stereo not drawn) [Ex. 10, 2,4-difluoro-N-(5-(3-(3-hydroxybut-1-yn-1-yl)imidazo[1,2-b]pyridazin-6-yl)-2-methoxypyridin-3-yl)benzenesulfonamide], the “TGI % U87MG” value with U87MG glioblastoma cells (1 mg/kg oral gavage) is listed as 32%; in the data set with U87MG glioblastoma cells (3 mg/kg oral gavage), 44%; in the data set with U87MG glioblastoma cells (10 mg/kg oral gavage), 65%. In data set [1] (iv dose 2 mg/kg), this compound registered an F of 79.88%. Also, the Cl/F in data set [1] (iv dosing 2 mg/kg) was 0.5 mL/min/kg. The compound also yielded an AUC(0-t) in data set [1] (iv dosing 2 mg/kg) of 67000 ng·h/mL. The half-life in data set [1] (iv dosing 2 mg/kg) was 4.27 h. In addition, the Vd in data set [1] (iv dosing 2 mg/kg) worked out at 0.14 L/kg. In addition, the figures for the half-life at 5 μM in data set [2] (setting [4]) and in data set [3] (setting [5]) were 4.66 h and 8.79 h, respectively. Moreover, the CLint scaled at 5 μM is 8.89 mL/min/kg in data set [2] and 3.3 mL/min/kg in data set [3]. Further, on PI3K p110α/p85α (h), the IC50 turned out to be 3 nM.

On to `COc1ncc(-c2ccc3ncc(C#CC(C)(C)O)n3n2)cc1NS(=O)(=O)c1ccc(F)cc1F` [Ex. 11, 2,4-difluoro N (5 (3 (3 hydroxy-3-methylbut-1-yn-1-yl)imidazo[1,2-b]pyridazin-6-yl)-2-methoxypyridin-3-yl)benzenesulfonamide], for which the F in data set [1] (iv dose 1 mg/kg) worked out at 115.8%. In data set [1] (iv dosing 1 mg/kg), the Cl/F was found to be 0.33 mL/min/kg, the AUC(0-t) was determined as 40400 ng·h/mL, the half-life is 4.92 h and the Vd was 0.15 L/kg. Moreover, on PI3K p110α/p85α (h), the IC50 is 8 nM.

`CC#Cc1cnc2ccc(-c3cnc(OC)c(NS(=O)(=O)c4ccc(F)cc4F)c3)nn12` [Ex. 13, 2,4-difluoro-N-(2-methoxy-5-(3-(prop-1-yn-1-yl)imidazo[1,2-b]pyridazin-6-yl)pyridin-3-yl)benzenesulfonamide] came in with a F in data set [1] (iv dose 1 mg/kg) of 95.8%. For the same compound, in data set [1] (iv dosing 1 mg/kg), the Cl/F is 1.5 mL/min/kg, the AUC(0-t) came to 11300 ng·h/mL, the half-life is 3.08 h and the Vd stood at 0.32 L/kg. Moreover, the half-life at 5 μM in data set [2] (setting [4]) amounted to 1.59 h. Besides, the CLint scaled at 5 μM in data set [2] was 26.1 mL/min/kg. In addition, in data set [3] (setting [5]), the half-life at 5 μM turned out to be 18.8 h. Moreover, the CLint scaled at 5 μM in data set [3] was 1.54 mL/min/kg.

For the compound `COc1ncc(-c2ccc3ncc(C#CC(C)(C)O)n3c2)cc1NS(=O)(=O)c1ccc(F)cc1F` [Ex. 17, 2,4-difluoro-N-(5-(3-(3-hydroxy-3-methylbut-1-yn-1-yl)imidazo[1,2-a]pyridin-6-yl)-2-methoxypyridin-3-yl)benzenesulfonamide], the F in data set [1] (iv dose 1 mg/kg) was determined as 123.1%. In data set [1] (iv dosing 1 mg/kg), the Cl/F worked out at 0.5 mL/min/kg, the AUC(0-t) amounted to 38700 ng·h/mL, the half-life is 5.3 h and the Vd was 0.17 L/kg. In addition, in data set [2] (setting [4]), the half-life at 5 μM is 4.66 h. In addition, in data set [2], the CLint scaled at 5 μM was 8.87 mL/min/kg. Moreover, the half-life at 5 μM in data set [3] (setting [5]) was found to be 8.53 h. In addition, the CLint scaled at 5 μM in data set [3] was 3.4 mL/min/kg.

Consider `COc1ncc(-c2ccc3nnc(C#CC(C)O)n3c2)cc1NS(=O)(=O)c1ccc(F)cc1F` (stereo not drawn) [Ex. 23, 2,4-difluoro N (5 (3 (3 hydroxybut-1-yn-1-yl)-[1,2,4]-triazolo[4,3-a]pyridin-6-yl)-2-methoxypyridin-3-yl)benzenesulfonamide], for which the F in data set [1] (iv dose 1 mg/kg) was found to be 5.9%. Also, in data set [1] (iv dosing 1 mg/kg), the Cl/F stood at 30.2 mL/min/kg, the AUC(0-t) was determined as 561 ng·h/mL, the half-life is 0.15 h and the Vd is 0.19 L/kg. Also, in data set [2] (setting [4]), the “Rat T1/2” value is on record as “∞”. The “Human T1/2” value in data set [3] (setting [5]) was “∞”.

In general, IC50 refers to the concentration that inhibits the measured activity by half. In general, AUC(0-t) refers to exposure summed from dosing to a finite time, without extrapolation to infinity. A higher AUC(0-t) goes with more exposure. The term CLint scaled denotes the capacity of the preparation to metabolise the compound, expressed as a volume cleared per time.

The record behind these values is US9926324B2, “Heteroaromatic compounds as PI3 kinase modulators and methods of use” (Calitor Sciences, LLC, priority 2012, dated 2018).
